Test results: patent publication EP0819136B1, “MDP DERIVATIVES AND CONJUGATES HAVING HAEMATOPOIETIC FUNCTION STIMULATING ACTIVITY, AND COMPOSITIONS CONTAINING SAME” (VACSYN S.A., priority 1995, dated 1996)

Columns and labels:
[1] = tested on: globules rouges et les plaquettes; assay: Red blood cell and platelet counts after 7 days of oral AZT, Muradimétide or both (Example 3, figures 9 and 10); assay type: in vivo, souris femelles BALB/c; settings: p.o. once daily for 7 days: 100 mg/kg AZT, 50 mg/kg muradimétide, or both simultaneously; counts up to day 10
From the text: La figure 9 représente l'effet du traitement per os de souris BALB/c pendant 7 jours consécutifs avec de l'AZT, du Muradimétide (MDM) ou un mélange de ceux-ci sur la numération plaquettaire.
La figure 10 représente l'effet du traitement per os de souris BALB/c pendant 7 jours consécutifs avec de l'AZT, du Muradimétide (MDM) ou un mélange de ceux-ci sur le nombre des globules rouges.
L'effet d'un traitement de 7 jours sur le nombre de globules rouges et de plaquettes est indiqué dans les figures 9 et 10 respectivement. Les numérations sont représentées en pourcentage de celles obtenues au jour 0. Des souris femelles BALB/c (5 par groupe) sont traitées une fois par jour pendant 7 jours consécutifs par 100 mg/kg d'AZT (Δ), 50 mg/kg de muradimétide (D) ou simultanément par 100 mg/kg d'AZT et 50 mg/kg de muradimétide (O). Les comptages de plaquettes ou de globules rouges ont été réalisés au jour 0 et jusqu'à 10 jours suivant le début du traitement. […] La tendance à l'augmentation de leur nombre apparaît entre les jours 4 et 5. En revanche, l'anémie qui pourrait être observée dans les groupes traités pourrait être due aux saignements répétés; néanmoins la vitesse et l'importance de l'anémie est grandement réduite chez les animaux traités avec le mélange des deux produits en comparaison avec celui observé dans le groupe traité par l'AZT seul. […]

myélocytes circulants = assay: Circulating myelocytes during two weeks of oral treatment, 4 days per week (Example 4, figure 11); assay type: in vivo, souris; settings: p.o. days 0, 1, 2, 3 and 7, 8, 9, 10; MDM 25 mg/kg, AZT 50 mg/kg or both
Description: La figure 11 représente l'effet d'un traitement per os de souris pendant deux semaines consécutives (4 jours par semaine) avec l'AZT, le Muradimétide ou le mélange des deux sur le nombre des myélocytes circulants.
La figure 11 montre l'effet d'un traitement par le MDM à 25 mg/kg (X), de l'AZT à 50 mg/kg (O) et du mélange des deux (□) sur le comptage des myélocytes de souris traitées pendant 2 semaines aux jours 0, 1, 2, 3 de la première semaine et 7, 8, 9, 10 de la deuxième semaine. […] Si l'effet est surtout marqué au niveau de la première semaine, cela montre que le traitement nécessite un certain espace de temps entre les différents cycles de traitement et que des traitements répétés pourraient, le cas échéant, être utiles.

myélocytes = assay: Comparison of oral Muradimétide and MDPA on myelocyte count after i.v. AZT (Example 10, figure 8); assay type: in vivo, souris swiss femelles; settings: AZT 40 mg/kg i.v. days 0-3; MDPA 25 mg/kg p.o. 4 h before AZT
From the text: La figure 8 représente l'effet d'un traitement per os des souris avec du Muradimétide sur le changement de la numération myélocyte dans le sang circulant induite suite à une administration intra-veineuse d'AZT, deux dérivés de MDP étant comparés : le MDPA (Nac-Mur-L-ALa-D-Glu) et le Muradimétide.
Le dérivé utilisé pour mettre en évidence l'effet particulier du Muradimétide est le MDPA. La figure 8 indique l'effet sur des souris d'un traitement per os sur les changements de la numération de myélocyte induite suite à une administration intraveineuse d'AZT. Dans cette expérience, les souris swiss femelles ont été traitées de façon intraveineuse avec 40 mg par kg d'AZT aux jours 0, 1, 2 et 3. Des groupes de 5 souris ont reçu aux mêmes quatre jours et 4 heures avant l'AZT soit de l'eau physiologique, soit du MDPA à la dose de 25 mg par kg ou du Muradimétide par voie orale à la dose de 25 mg par kg. Les comptages de myélocytes ont été réalisés aux jours 0, 2, 3, 4 et 8. Les étoiles au-dessus des histogrammes ont la même signification que dans les diagrammes précédents.

Row | Structure (SMILES) | toxicité sur les plaquettes [1] | effet sur la mobilisation des CHS (comptage des myélocytes) (myélocytes circulants) | effet antimyélotoxique et mobilisation des CSH dans la circulation sanguine (myélocytes)
1 | Cc1cn([C@H]2C[C@H](N=[N+]=[N-])[C@@H](CO)O2)c(=O)[nH]c1=O [AZT, 3'-Azido-3'-desoxy-thymidine, reference compound] | Aucune toxicité | strictement aucun effet | 
2 | CC(=O)N[C@H]1C(O)O[C@H](CO)[C@@H](O)[C@@H]1O[C@H](C)C(=O)N[C@@H](C)C(=O)N[C@H](CCC(=O)O)C(=O)O (stereo partly drawn) [MDPA, Nac-Mur-L-ALa-D-Glu] |  |  | n'étant pas retrouvé
